Experiments:
[1] = AFM, prior report; cited from earlier work
rats = conditions: prior report; cited from earlier work
[2] = Fluorescence assay for inhibition of L-cystine crystal formation (aqueous solubility of L-cystine, OPA/NBC); format: physicochemical; conditions: for Ratio: improvement in potency over the control CDME; for fold increase in potency/activity as compared to CDME: at increasing the aqueous solubility of L-cystine
Method: As used herein, the EC2x's are the concentrations required of the candidate compounds to double the aqueous solubility of cystine and were determined to assess drug potency and potential dosing regimens for in vivo use. One of ordinary skill in the art is readily able to ascertain such information using commonly known methodologies.
Another aspect of the present invention is directed to the processes of determining the concentration of L-cystine using a fluorescence assay after OPA/NBC derivatization. In at least one embodiment with respect to this aspect of the invention, the concentration of the L-cystine was assessed by a fluorescence assay. Accordingly, the inventors developed a fluorescence-based assay using O-phthaldialdehyde (OPA) and N-Boc-cysteine (NBC) to accurately measure the concentration of L-cystine in aqueous solutions using a similar protocol we previously reported. OPA/NBC are popular reagents used for precolumn derivatization of amino acids in HPLC. This derivatization is fast and simple to operate. However, the reaction of OPA with the disulfide cystine and NBC yielded derivatives with weak fluorescence. The disulfide in cystine was reduced and then alkylated with iodoacetic acid to form S-carboxymethylcysteine, which yielded OPA/NBS derivatives with normal fluorescence. L-Cystine solution was thus used to construct a standard curve. L-Cystine first reacted with DTT for 10 min, followed by reaction with iodoacetic acid for 15 min, then reacted with OPA and NBC for 3 min. The final mixture was pipetted into 384-well plate and the fluorescence intensity was read at Ex 340 nm/Em 460 nm. A linear standard curve was obtained in the concentration range between 50 μM and 400 μM (see FIG. 3).
Formation of supersaturation solution—a supersaturated solution was formed by dissolving 21 mg of L-cystine in 30 mL of Millipore water (˜3 mM) under reflux at 100° C. for 20 min until the L-cystine was completely dissolved. The supersaturated solution was then allowed to cool slowly with stirring for 75 min.
Construction of standard curves—L-Cystine (5 mg) was dissolved in Millipore water (34.7 mL) to form a 0.6 mM solution as a stock solution. Then, L-cystine solution was diluted to 0.4, 0.3, 0.2, 0.1, 0.05 mM solution. 10 uL of each L-cystine solutions, 90 uL of 0.1 M dibasic sodium phosphate solution, and 10 uL of DTT solution (12.5 mM) were mixed at r.t. for 10 min, before the addition of 10 uL of iodoacetic acid (100 mM) and continued incubation at r.t. for an additional 15 min. This was then followed by the addition of 10 uL of OPA (100 mM in methanol) and 10 uL of NBC (100 mM in methanol). The derivatization was allowed to proceed for 3 min before 40 uL of the mixture was plated in a 384-well plate and read at Ex 340 nm/Em 460 nm. The standard curve was repeated for each set of experiments and used to calculate the concentration of L-cystine in each sample.
Determination of L-cystine concentration—All test compounds were dissolved in water to form 10 mM stock solution. 5 uL of each solution was added to 500 uL L-cystine supersaturated solution. The mixtures were allowed to stand at 25° C. for 72 h. At the end of incubation, the mixtures were centrifuged at 10,000 rpm for 4 min and the supernatants were diluted 2-fold for concentration measurement. Each diluted mixture (10 uL), 0.1 M dibasic sodium phosphate solution (90 uL), and 10 uL of DTT solution (12.5 mM) were mixed at r.t. for 10 min, before the addition of 10 uL of iodoacetic acid (100 mM) and continued incubation at r.t. for an additional 15 min. Derivatization was performed by the addition of 10 uL of OPA (100 mM in methanol) and 10 uL of NBC (100 mM in methanol) for 3 min. 40 uL of the derivatized mixture was plated in a 384-well plate and fluorescence was read at Ex 340 nm/Em 460 nm to derive the concentrations of the original mixtures. […]

[3] = prior report; cited from earlier work
cell culture = cell culture experiments, prior report; cited from earlier work
[4] = Compound concentration and volume of mouse urine after 7 daily oral doses (LC-MS/MS); format: in vivo, mice; conditions: for oral bioavailability: concluded from urine concentrations after oral dosing
Method: This dose is equivalent to 29 μmol/kg (29 mg/m^2 assuming a body surface area of 0.007 m^2). To determine LH707/LH708 absorption and excretion, these compounds were administered daily for seven days and urine samples collected before and immediately after the last treatment.
(§1) Urine samples (0.15 to 1.1 ml) were collected by placing the mice in metabolic cages for four hours or longer and frozen at −20° C. The four-week treatment samples were analyzed for amino acids by ion exchange chromatography on a Biochrom analyzer (Biochrom US, Holliston, Mass.) and the amino acid levels normalized to nmol/mg creatinine. The seven-day treatment samples were analyzed for LH707 and LH708 by LC-MS (see below).
It was determined that the concentrations of LH707/LH708 in the mine samples collected using LC-MS/MS in positive MRM mode (LH707, 379.0→188.9; LH708, 203.1→101.3) on a Transcend LX2 system (Thermo Fisher, Waltham, Mass.) coupled to an API 4000 (AB Sciex, Framingham, Mass.). […] The gradient was performed at a flow rate of 750 μL/min as follows: 95% B for 90 s, 95 to 5% B in 42 s, 5% B for 30 s.

Slc3a1 knockout mice = assay: In vivo activity in a genetic mouse model, four-week oral treatment (bladder stones, urine amino acids)
Method: Slc3a1 knockout mice in a mixed 129/C57BL6 background were used in the studies described here. Two-mouth old knockout male mice for LH707 or LH708 treatment were selected. […] Most male mice over age six months have bladder stones and some have kidney stones as well. Female knockout mice have crystalluria but no stones until age over 12 months. Mouse genotypes and gender were determined by PCR amplification of tail DNA. Based on previous observations, Slc3a1 heterozygotes have no apparent phenotype so they were used in place of wild-type mice as needed. Animal studies were conducted in accordance with Rutgers University IACUC policies.
LH707 dihydrochloride (MW 451.43) and LH708 tetrahydrochloride (MW 550.44) were prepared fresh daily (2.9 mM in water) and 200 μl was administered to Slc3a1 knockout male mice (body weight 20 g) by gavage daily for four weeks using a 20G disposable flexible plastic feeding needle with a soft tip (Model FTP-20-30, Instech Laboratories, Inc., Plymouth Meeting, Pa.).
This dose is equivalent to 29 μmol/kg (29 mg/m^2 assuming a body surface area of 0.007 m^2). […]
as §1
Mice were sacrificed after urine collection and the bladder and kidneys removed and placed in 10% formalin. […] This application was evaluated for the assessment of quantitative parameters such as bladder volume, stone volume, and stone number from the scanned 3D datasets.
After micro CT scanning, bladders were weighed and the stones removed, weighed, counted, and measured in the longest dimension (see FIG. 5). […]

[5] = concentration required to double the aqueous solubility of cystine, water, 25° C., 72 h
[6] = effective concentration required to double the solubility of L-cystine in water

**Q.** Which “growth velocity of six symmetry-equivalent {100} steps of L-cystine crystals” value [1] does the source give for COC(=O)[C@@H](N)CSSC[C@H](N)C(=O)OC [CDME, L-cystine dimethylester] here?
**A.** dramatically reduce

**Q.** And the “dosage demonstrating adverse effects” value (rats)?
**A.** approximately 500 mg/kg per day

**Q.** And the EC2x [2, 5]?
**A.** 6.37 mM

**Q.** And the EC2x [2, 6]?
**A.** 0.00353 mM

**Q.** And the Ratio [2]?
**A.** 1.0

**Q.** And the “concentration that almost completely inhibits the crystallization of L-cystine in water” value [3]?
**A.** above 2 mg/L

**Q.** What about the “concentration causing loss of cell viability” value (cell culture) of the same compound?
**A.** approximately 1 mM

**Q.** For COC(=O)[C@@H](N)CSSC[C@H](N)C(=O)O [CME, L-cystine methylester], which “growth velocity of six symmetry-equivalent {100} steps of L-cystine crystals” value [1] is on record?
**A.** dramatically reduce

**Q.** What does the source list for N[C@@H](CSSC[C@H](N)C(=O)NC1CC1)C(=O)NC1CC1 [LH704, L-Cystine bis(cyclopropylamide)]?
**A.** EC2x [2, 5]: 3.53 mM; Ratio [2]: 1.8

**Q.** For N[C@@H](CSSC[C@H](N)C(=O)N1CCCCC1)C(=O)N1CCCCC1 [LH706, L-Cystine bispiperidine], which EC2x [2, 5] is on record?
**A.** 1.59 mM

**Q.** What about the Ratio [2] of the same compound?
**A.** 4.0

**Q.** Which results are given for N[C@@H](CSSC[C@H](N)C(=O)N1CCOCC1)C(=O)N1CCOCC1 [LH707]?
**A.** compound concentration in mouse urine ([4]; after 7 daily oral doses): micromolar concentrations; oral bioavailability [4]: readily bioavailable; fold increase in potency/activity as compared to CDME ([2]; listed as CDMOR): about 7 fold; fold increase in potency/activity as compared to CDME ([2]; listed as VII): 7.44 fold; EC2x [2, 5]: 0.86 mM; EC2x [2, 6]: 0.00086 mM; Ratio [2]: 7.4; concentrations at which inhibition of cystine crystallization in vitro occurs [2]: submicromolar

**Q.** For CN1CCN(C(=O)[C@@H](N)CSSC[C@H](N)C(=O)N2CCN(C)CC2)CC1 [LH708, L-Cystine bis(N′-methylpiperazide)], which “compound concentration in mouse urine” value ([4]; after 7 daily oral doses) is on record?
**A.** micromolar concentrations

**Q.** What about the “compound concentration in urine of Slc3a1 knockout mice versus control or normal mice” value ([4]; after 7 daily oral doses, FIG. 7) of the same compound?
**A.** significantly higher concentrations

**Q.** And the oral bioavailability [4]?
**A.** readily bioavailable

**Q.** What about the “fold increase in potency/activity as compared to CDME” value ([2]; listed as CDNMP) of the same compound?
**A.** 24 fold

**Q.** And the “fold increase in potency/activity as compared to CDME” value ([2]; listed as VIII)?
**A.** 24.41 fold

**Q.** And the EC2x [2, 5]?
**A.** 0.26 mM

**Q.** And the EC2x [2, 6]?
**A.** 0.00026 mM

**Q.** And the Ratio [2]?
**A.** 24.4

**Q.** And the “concentrations at which inhibition of cystine crystallization in vitro occurs” value [2]?
**A.** submicromolar

**Q.** And the “efficacy at inhibiting cystine stone formation” value (Slc3a1 knockout mice; Slc3a1 knockout male mice, gavage daily for four weeks, LH708 versus LH707)?
**A.** better efficacy

**Q.** And the “urine concentration of other amino acids (ornithine, lysine, arginine, proline, valine, leucine, phenylalanine)” value (Slc3a1 knockout mice; four-week treatment)?
**A.** no significant changes

**Q.** What about the “concentration of cystine in mouse urine as compared to before treatment” value (Slc3a1 knockout mice; four-week treatment, paired t-test) of the same compound?
**A.** significantly increased

**Q.** What does the source list for N[C@@H](CSSC[C@H](N)C(=O)NCCO)C(=O)NCCO [LH709, L-Cystine diethanolamide]?
**A.** EC2x [2, 5]: 2.02 mM; Ratio [2]: 3.2

— patent US11420949B2, “Cystine diamide analogs for the prevention of cystine stone formation in cystinuria” (Rutgers, The State University of New Jersey, priority 2013, dated 2022)
